Ends that are not written are not given here.
Columns and labels:
[1] = Hypercalcemic assay in cynomolgus monkeys (serum and urinary calcium and phosphate); format: in vivo, cynomolgus monkey; settings: for serum calcium: 0.25 nmol/kg intravenous, FIG. 12A; for serum calcium, subcutaneous two doses: 2.5 or 10 nmol/kg subcutaneous, FIG. 15A
Procedure: The effects of the SP-PTH (SEQ ID NO:11) and SP-PTH-AAK (SEQ ID NO:4) (“SP-AAK”) on serum and urinary calcium and phosphate levels were tested in cynomolgus monkeys. Briefly, three- or four-year-old, male cynomolgus monkeys (HAMRI Co., Ltd., Ibaraki, Japan) were measured for their body weight. Blood was collected into tubes. Monkeys received intravenous or subcutaneous administration of each polypeptide at a dose of 0.3 ml/kg. Polypeptide concentrations in stock solution were adjusted by dilution with 25 mmol/L phosphate-citrate buffer/100 mmol/L NaCl/0.05% Tween 80 (pH.5.0) (PC-buffer). All polypeptides were allowed to stand on ice immediately before administration. Polypeptides were administered to groups of three monkeys each respectively. At 1, 2, 4, and 8 hours after administration, blood was collected by saphenous vein to monitor the time course of calcium and phosphorus levels (FIG. 11A).
Similar experiments were performed using subcutaneous injection of the polypeptides using two different doses (2.5 nmol/kg or 10 nmol/kg; FIG. 14). […] Reductions in serum inorganic phosphate were also observed (FIGS. 15B and 15C). […] Urine calcium and phosphate data were also collected. Urine was collected in 24-hour intervals prior to injection (T=0) and at times thereafter and assessed for Ca (FIGS. 15E and 15G), Pi (FIGS. 15F and 15H) and creatinine; [Ca] and [PI] are expressed as ratios to [creatinine]. FIGS. 15G and 15H present the change from the pre-injection values. Data are means±s.e.m.; n=3/group.

MC3T3-E1 cells [2] = assay: cAMP RIA in intact MC3T3-E1 cells; format: cell-based, mouse; settings: 30 min, room temperature, IBMX; for cAMP MC3T3-E1 cells EC50 (Log M): 6 experiments
Outline: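 Intact mouse pre-osteoblastic MC3T3-E1 cells were stimulated with polypeptide. cAMP in HCl lysates was measured by radioimmunoassay. Values are means of six duplicate experiments with fitted curves.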

rat PTHR1 (R0) = target: T1, rat PTHR1 (R0) (Rattus norvegicus, UniProt P25961); assay: Competition binding, R0 conformation of rat PTHR1; settings: for IC50: R0 conformation, mean of 4 experiments, read-out: Binding rat PTHR1 IC50 (Log M) R0 (converted)
T1 sequence (P25961 27-591): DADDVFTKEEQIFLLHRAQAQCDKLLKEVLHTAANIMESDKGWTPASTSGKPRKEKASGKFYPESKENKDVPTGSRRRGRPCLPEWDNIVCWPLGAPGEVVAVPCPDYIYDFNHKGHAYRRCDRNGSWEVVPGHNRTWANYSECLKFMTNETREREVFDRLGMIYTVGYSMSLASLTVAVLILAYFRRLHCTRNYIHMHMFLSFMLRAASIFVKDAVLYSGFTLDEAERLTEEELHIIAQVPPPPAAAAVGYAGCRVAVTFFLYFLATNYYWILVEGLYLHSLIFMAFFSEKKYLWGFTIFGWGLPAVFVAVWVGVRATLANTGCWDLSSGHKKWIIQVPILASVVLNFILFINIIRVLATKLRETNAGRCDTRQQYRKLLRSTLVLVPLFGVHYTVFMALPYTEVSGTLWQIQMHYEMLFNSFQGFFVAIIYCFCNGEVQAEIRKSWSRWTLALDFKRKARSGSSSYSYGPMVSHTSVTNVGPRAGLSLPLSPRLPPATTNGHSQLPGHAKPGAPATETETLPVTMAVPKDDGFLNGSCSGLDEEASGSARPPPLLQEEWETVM
From the text: Briefly, the R^0 form of the receptor can be favored by addition of the non-hydrolyzable nucleotide analog GTPγS. The RG form can be favored, for example, by co-transfection of cells with a negative dominant Gαs subunit. […] Data are means of four experiments, each performed in duplicate. Curves were fit to the data using Graph-Pad Prism 4.0.

[3] = Blood Ca++ responses in mice; format: in vivo, mice (C57 BL/6); settings: 5 nmol/kg s.c., 4, 6, 8 and 24 hours
Procedure: Blood Ca^++ responses in mice were also assayed. Mice (C57 BL/6) were injected subcutaneously with either vehicle or the indicated ligand to give a final dose of 5 nmol/kg body weight, and blood was withdrawn via the tail at times after injection and assessed for Ca^++ concentration using a Bayer Rapid Lab model 348 blood analyzer. […] A similar experiment using 10 nmol/kg by intravenous injection was also conducted with similar results (FIGS. 8C and 8D).

MC3T3-E1 cells [4] = assay: cAMP response following ligand wash-out in MC3T3-E1 cells; format: cell-based, mouse; settings: 100 nM ligand 5 min, then wash-out; FIGS. 7A, 7B
Procedure: Cells were treated at room temperature with vehicle or the indicated ligand (100 nM) for five minutes; for each ligand duplicate wells were used to obtain the initial (maximum cAMP values); in these wells, cells were co-incubated with ligand and IBMX. After five minutes of initial treatment, the buffer was removed, and, for the initial wells, the reactions were terminated by addition of 50 mM HCl. In the other wells, the cells were rinsed three times with buffer, and incubated in buffer for varying times, as indicated on the abscissa; after which the buffer was replaced by a buffer containing IBMX, and the cells were incubated for another five minutes. After that, the buffer was removed and the reactions were terminated by addition of 50 mM HCl. The cAMP contents of the HCl lysates were then determined by RIA.

EC50 (MC3T3-E1 cells [2]) | cAMP MC3T3-E1 cells EC50 (Log M) (MC3T3-E1 cells [2]) | binding to R0 form of rat PTHR1, comparison in words (rat PTHR1 (R0); FIG. 1A) | EC50 (rat PTHR1 (R0); FIG. 1A, read-out: log EC50, binding to the R0 form of the rat PTH receptor (converted)) | IC50 (rat PTHR1 (R0)) | Substance | serum calcium [1] | serum calcium, subcutaneous two doses [1] | cAMP MC3T3-E1 cells Emax (pmole/well) (MC3T3-E1 cells [2]) | stronger binding to the R0 form of the rat PTH receptor as compared to PTH(1-34) (rat PTHR1 (R0); FIG. 1A) | blood calcium levels at later time points vs PTH(1-34) or vehicle [3] | cAMP-stimulating activity after ligand wash-out (MC3T3-E1 cells [4])
0.0063 nM | −11.2 ± 0.2 Log M | strongest binding | 0.2 nM | 0.209 nM | AVAEIQLMHQRAKWIQDARRRAFLHKLIAEIHTAEI-OH [SP-PTH-AAK, [Ala^1,3,12,18,22,Gln^10,Arg^11,Trp^14,Lys^26]PTH(1-14)/PTHrP(15-36)] | increased serum calcium | increases in serum calcium were observed in a dose dependent manner | 62.3 ± 13.6 pmole/well | greater than two orders of magnitude increase in binding | increased | maintained cAMP-stimulating activity for longer periods of time than PTH(1-34)
0.044 nM | −10.4 ± 0.1 Log M | – | – | 1.45 nM | AVAEIQLMHQRAKWIQDLRRRFFLHHLIAEIHTAEI-OH [SP-PTH, [Ala^1,3,12,Gln^10,Arg^11,Trp^14]PTH(1-14)/PTHrP(15-36)] | increased serum calcium | increases in serum calcium were observed in a dose dependent manner | 60.6 ± 12.4 pmole/well | – | increased | maintained cAMP-stimulating activity for longer periods of time than PTH(1-34)

— patent US9492508B2, “Parathyroid hormone analogs and uses thereof” (The General Hospital Corporation, priority 2010, dated 2016)
